Measured values: ChEMBL document CHEMBL1201862, “PubChem BioAssay data set” (2004)
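In this assay, cells in 96-well plates receive the compound at five concentrations for 48 hours. Endpoints are linearly interpolated between the surrounding concentrations. GI50 marks 50% less growth.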 Active and inactive are the calls of the source. Rule as the data show it: active = GI50 up to about 1.1 µM and inactive = higher.

How the values were obtained:
Assay in all cases: NCI anticancer screen, dose series, 48 h
HCT-15 = test system: HCT-15
RXF 393 = test system: RXF 393
MOLT-4 = test system: MOLT-4
K562 = test system: K562
OVCAR-5 = test system: OVCAR-5
TK-10 = test system: TK-10
LOX IMVI = test system: LOX IMVI
BT-549 = test system: BT-549
U-251 = test system: U-251
NCI-H460 = test system: NCI-H460
CAKI-1 = test system: CAKI-1
A549 = test system: A549
NCI-H226 = test system: NCI-H226
MCF7 = test system: MCF7
OVCAR-4 = test system: OVCAR-4
RPMI-8226 = test system: RPMI-8226
DU-145 = test system: DU-145
MDA-N = test system: MDA-N
OVCAR-8 = test system: OVCAR-8
OVCAR-3 = test system: OVCAR-3

| Compound | GI50 (HCT-15) | GI50 (RXF 393) | GI50 (MOLT-4) | GI50 (K562) | GI50 (OVCAR-5) | GI50 (TK-10) | GI50 (LOX IMVI) | GI50 (BT-549) | GI50 (U-251) | GI50 (NCI-H460) | GI50 (CAKI-1) | GI50 (A549) | GI50 (NCI-H226) | GI50 (MCF7) | GI50 (OVCAR-4) | GI50 (RPMI-8226) | GI50 (DU-145) | GI50 (MDA-N) | GI50 (OVCAR-8) | GI50 (OVCAR-3) |
| --- | --- | --- | --- | --- | --- | --- | --- | --- | --- | --- | --- | --- | --- | --- | --- | --- | --- | --- | --- | --- |
| O=c1[nH][nH]c(=O)n1Cc1ccccc1 | > 100 µM | > 100 µM (inactive) | > 100 µM (inactive) | > 100 µM (inactive) | > 100 µM (inactive) | > 100 µM (inactive) | > 100 µM (inactive) | > 100 µM (inactive) | > 100 µM (inactive) | > 100 µM (inactive) | > 100 µM (inactive) | > 100 µM (inactive) | > 100 µM (inactive) | > 100 µM (inactive) | > 100 µM (inactive) | > 100 µM (inactive) | > 100 µM (inactive) | > 100 µM (inactive) | > 100 µM (inactive) | > 100 µM (inactive) |
| CC1(C)Cc2c(sc3[nH]c(=S)[nH]c(=S)c23)CS1 | 33.3 µM | 60.8 µM (inactive) | 43 µM (inactive) | 29.2 µM (inactive) | – | 95.5 µM (inactive) | 32.8 µM (inactive) | 46.3 µM (inactive) | 41.9 µM (inactive) | 40.2 µM (inactive) | 30.5 µM (inactive) | 59.2 µM (inactive) | 44.5 µM (inactive) | 32.8 µM (inactive) | 18.2 µM (inactive) | 25.1 µM (inactive) | > 100 µM (inactive) | 33.9 µM (inactive) | 90.2 µM (inactive) | 26.2 µM (inactive) |
| CC(=O)N1CCn2c1nc1cc(Cl)ccc12 | 35.2 µM | 20.8 µM (inactive) | > 100 µM (inactive) | > 100 µM (inactive) | > 100 µM (inactive) | 63.1 µM (inactive) | 39.2 µM (inactive) | > 100 µM (inactive) | 37.8 µM (inactive) | 77.6 µM (inactive) | > 100 µM (inactive) | > 100 µM (inactive) | 94.8 µM (inactive) | > 100 µM (inactive) | > 100 µM (inactive) | – | 33.4 µM (inactive) | > 100 µM (inactive) | 74.3 µM (inactive) | 95.1 µM (inactive) |
| CCC1(CC)C(=O)N(C(=O)c2cc(OC)c(OC)c(OC)c2)N(C(=O)c2cc(OC)c(OC)c(OC)c2)C1=O | > 50 µM | > 50 µM (inactive) | – | > 50 µM (inactive) | > 50 µM (inactive) | > 50 µM (inactive) | > 50 µM (inactive) | > 50 µM (inactive) | > 50 µM (inactive) | > 50 µM (inactive) | > 50 µM (inactive) | > 50 µM (inactive) | > 50 µM (inactive) | > 50 µM (inactive) | > 50 µM (inactive) | > 50 µM (inactive) | > 50 µM (inactive) | > 50 µM (inactive) | > 50 µM (inactive) | > 50 µM (inactive) |
| O=[N+]([O-])/C(Cl)=C/C(=C1/Nc2ccccc2O1)[N+](=O)[O-] | 16.6 µM | 18.1 µM (inactive) | 19.8 µM (inactive) | 32.7 µM (inactive) | – | 44.1 µM (inactive) | 8.13 µM (inactive) | 16.3 µM (inactive) | 12.8 µM (inactive) | 31.5 µM (inactive) | 21.4 µM (inactive) | 34.8 µM (inactive) | 27.4 µM (inactive) | 29.6 µM (inactive) | 29 µM (inactive) | 28.5 µM (inactive) | 19.2 µM (inactive) | 18.5 µM (inactive) | 17.9 µM (inactive) | 19.3 µM (inactive) |
| O=C(/C=C/c1ccc(O)cc1)c1cc(O)cc(O)c1 | 5.4 µM | 15.8 µM (inactive) | 16.3 µM (inactive) | 2.68 µM (inactive) | 13.8 µM (inactive) | 24.4 µM (inactive) | 4.32 µM (inactive) | 14.3 µM (inactive) | 14.5 µM (inactive) | – | 14.4 µM (inactive) | 16.5 µM (inactive) | 24.1 µM (inactive) | 3.54 µM (inactive) | 20.6 µM (inactive) | 2.16 µM (inactive) | 12.7 µM (inactive) | 11.9 µM (inactive) | 13.4 µM (inactive) | 15.3 µM (inactive) |
| COc1ccc(-c2nnc3n(Cc4ccccc4)c4ccccc4n3c2=O)cc1 | > 100 µM | 26.8 µM (inactive) | > 100 µM (inactive) | – | 42.8 µM (inactive) | 21.9 µM (inactive) | 49.9 µM (inactive) | > 100 µM (inactive) | 19.9 µM (inactive) | 33.5 µM (inactive) | 13.9 µM (inactive) | 45 µM (inactive) | 17.4 µM (inactive) | 29.4 µM (inactive) | 6.01 µM (inactive) | – | 59.4 µM (inactive) | > 100 µM (inactive) | 30.9 µM (inactive) | – |
| COc1ccc(Nc2nn3c(=O)c4c(C)c(C)sc4nc3s2)cc1 | 44.7 µM | 19.7 µM (inactive) | 43.2 µM (inactive) | > 100 µM (inactive) | 52.4 µM (inactive) | 26.8 µM (inactive) | 56.9 µM (inactive) | > 100 µM (inactive) | 37.9 µM (inactive) | 28.6 µM (inactive) | 39.3 µM (inactive) | 18.6 µM (inactive) | 67.8 µM (inactive) | 34.8 µM (inactive) | 24.4 µM (inactive) | – | 18.1 µM (inactive) | 45.6 µM (inactive) | 49.1 µM (inactive) | 29.1 µM (inactive) |
| O=C(NNC(=S)Nc1ccc(Cl)cc1)C12CC3CC(CC(C3)C1)C2 | 3.18 µM | 14.7 µM (inactive) | 1.98 µM (inactive) | 4.24 µM (inactive) | 20.3 µM (inactive) | 16.5 µM (inactive) | 2.53 µM (inactive) | 11.6 µM (inactive) | 3.6 µM (inactive) | 2.97 µM (inactive) | 7.19 µM (inactive) | 3.84 µM (inactive) | 10.7 µM (inactive) | 3.37 µM (inactive) | 4.92 µM (inactive) | – | 11.6 µM (inactive) | 10.2 µM (inactive) | 3.52 µM (inactive) | 2.45 µM (inactive) |
| CSc1nc(=S)[nH]c2c1c(C)nn2-c1ccccc1 | 20.3 µM | 26.2 µM (inactive) | 14.2 µM (inactive) | 16.6 µM (inactive) | 51.1 µM (inactive) | 24.4 µM (inactive) | 15.7 µM (inactive) | 19.7 µM (inactive) | 29.4 µM (inactive) | 10.2 µM (inactive) | 21.2 µM (inactive) | 31.3 µM (inactive) | 17.7 µM (inactive) | 17.8 µM (inactive) | 17.2 µM (inactive) | 6.73 µM (inactive) | 15.6 µM (inactive) | 24.8 µM (inactive) | – | 35.5 µM (inactive) |
| NCCNC(=S)S | 58.2 µM | > 100 µM (inactive) | 34.9 µM (inactive) | 36.6 µM (inactive) | > 100 µM (inactive) | > 100 µM (inactive) | 51.8 µM (inactive) | > 100 µM (inactive) | > 100 µM (inactive) | – | > 100 µM (inactive) | > 100 µM (inactive) | > 100 µM (inactive) | > 100 µM (inactive) | > 100 µM (inactive) | 24.9 µM (inactive) | > 100 µM (inactive) | > 100 µM (inactive) | 57.5 µM (inactive) | 52.7 µM (inactive) |
| CC(=O)[C@H]1[C@H](O)C[C@@]2(C)[C@@H]3CCc4cc(O)c(OC5OC(CO)C(O)C(O)C5O)cc4C3(C)C(=O)C[C@]12C (stereo partly drawn) | > 100 µM | > 100 µM (inactive) | > 100 µM (inactive) | > 100 µM (inactive) | > 100 µM (inactive) | > 100 µM (inactive) | > 100 µM (inactive) | > 100 µM (inactive) | > 100 µM (inactive) | > 100 µM (inactive) | > 100 µM (inactive) | > 100 µM (inactive) | > 100 µM (inactive) | > 100 µM (inactive) | > 100 µM (inactive) | – | > 100 µM (inactive) | > 100 µM (inactive) | > 100 µM (inactive) | > 100 µM (inactive) |
| Cc1c(O)c(OC2OC(CO)C(O)C(O)C2O)cc2c1C=C[C@@H]1[C@@]2(C)C(=O)C[C@]2(C)[C@@H]([C@@](C)(O)C(O)/C=C/C(C)(C)O)[C@H](O)C[C@@]12C (stereo partly drawn) | > 100 µM | > 100 µM (inactive) | > 100 µM (inactive) | > 100 µM (inactive) | > 100 µM (inactive) | > 100 µM (inactive) | > 100 µM (inactive) | > 100 µM (inactive) | > 100 µM (inactive) | > 100 µM (inactive) | > 100 µM (inactive) | > 100 µM (inactive) | > 100 µM (inactive) | > 100 µM (inactive) | > 100 µM (inactive) | – | > 100 µM (inactive) | > 100 µM (inactive) | > 100 µM (inactive) | > 100 µM (inactive) |
| O=C(CCc1ccc(O)c(O)c1)NCCc1cc(O)c(O)c(O)c1 | 16.4 µM | 66.7 µM (inactive) | 21.6 µM (inactive) | 18.3 µM (inactive) | 61.2 µM (inactive) | > 100 µM (inactive) | 17.7 µM (inactive) | 17 µM (inactive) | 17.9 µM (inactive) | 20.6 µM (inactive) | – | 22.5 µM (inactive) | 34.3 µM (inactive) | 8.93 µM (inactive) | 20.2 µM (inactive) | 36.7 µM (inactive) | 64.7 µM (inactive) | 16.9 µM (inactive) | 20.4 µM (inactive) | 19.8 µM (inactive) |
| Cc1nn(C)c2nc3ccc(Cl)cc3c(-c3ccccc3)c12 | > 100 µM | > 100 µM (inactive) | > 100 µM (inactive) | > 100 µM (inactive) | 95.3 µM (inactive) | – | – | > 100 µM (inactive) | > 100 µM (inactive) | > 100 µM (inactive) | > 100 µM (inactive) | 79.6 µM (inactive) | > 100 µM (inactive) | > 100 µM (inactive) | > 100 µM (inactive) | > 100 µM (inactive) | > 100 µM (inactive) | > 100 µM (inactive) | > 100 µM (inactive) | > 100 µM (inactive) |
